Here are results for five molecules from patent US4234724A, “Cephalosporin analogues and processes for the preparation thereof” (Fujisawa Pharmaceutical Company, Limited, priority 1977, dated 1980).

Common to all, as to experiment: In vitro antibacterial activity, two-fold agar-plate dilution method
What all share (type): cell-based

In one assay the test system is E. coli 31. The following applies: Escherichia coli, HI-agar, 37° C., 20 hours, 10^6 viable cells per ml. As for the experimental part:
(§1) In vitro antibacterial activity was determined by the two-fold agar-plate dilution method as described below.
(§2) One loopful of an overnight culture of each test strain in Trypticase-soy broth (10^6 viable cells per ml.) was streaked on heart infusion agar (HI-agar) containing graded concentrations of antibiotics, and the minimum inhibitory concentration (MIC) was expressed in terms of μg/ml after incubation at 37° C. for 20 hours.

A further assay relates to Pr. mirabilis 18. The following applies: Proteus mirabilis, HI-agar, 37° C., 20 hours, 10^6 viable cells per ml. How it is done: as §1, §2
Another assay relates to Pr. vulgaris 2. As to conditions: Proteus vulgaris, HI-agar, 37° C., 20 hours, 10^6 viable cells per ml. As for the experimental part: as §1, §2
Another assay concerns Kl. pneumoniae 20. The following applies: Klebsiella pneumoniae, HI-agar, 37° C., 20 hours, 10^6 viable cells per ml. How it is done: as §1, §2

≈ marks a conversion by molar mass, not a printed value.

What is called MIC is the lowest concentration that inhibits growth of the organism. The low end stands for greater potency, the high end for weaker potency. For the molecule `CON=C(C(=O)NC1C(=O)N2C(C(=O)O)=CCOC12)c1csc(N)n1` (stereo not drawn) [(1), 7β-[2-Methoxyimino-2-(2-aminothiazol-4-yl)acetamid]-1-oxadethia-3-cephem-4-carboxylic acid (syn isomer)], the MIC amounted to 0.05 µg/mL (≈ 0.136 µM) against E. coli 31, 0.05 µg/mL (≈ 0.136 µM) in the assay with Pr. mirabilis 18, 0.2 µg/mL (≈ 0.544 µM) against Pr. vulgaris 2 and 0.1 µg/mL (≈ 0.272 µM) in the assay with Kl. pneumoniae 20.

As to `CCON=C(C(=O)NC1C(=O)N2C(C(=O)O)=CCOC12)c1csc(N)n1` (stereo not drawn) [(2), 7β-[2-Ethoxyimino-2-(2-aminothiazol-4-yl)acetamido]-1-oxadethia-3-cephem-4-carboxylic acid (syn isomer)], the MIC was determined as 0.05 µg/mL (≈ 0.131 µM) against E. coli 31, 0.05 µg/mL (≈ 0.131 µM) against Pr. mirabilis 18, 0.05 µg/mL (≈ 0.131 µM) in the assay on Pr. vulgaris 2 and 0.025 µg/mL (≈ 0.0656 µM) against Kl. pneumoniae 20.

Turning to `CC(C)ON=C(C(=O)NC1C(=O)N2C(C(=O)O)=CCOC12)c1csc(N)n1` (stereo not drawn) [(3), 7β-[2-Isopropoxyimino-2-(2-aminothiazol-4-yl)acetamido]-1-oxadethia-3-cephem-4-carboxylic acid (syn isomer)], the MIC against E. coli 31 came to 0.2 µg/mL (≈ 0.506 µM); in the assay on Pr. mirabilis 18, 0.1 µg/mL (≈ 0.253 µM); against Pr. vulgaris 2, 0.1 µg/mL (≈ 0.253 µM); in the assay with Kl. pneumoniae 20 it was 0.05 µg/mL (≈ 0.126 µM).

For the molecule `CON=C(C(=O)NC1C(=O)N2C(C(=O)O)=CCOC12)c1nsc(N)n1` (stereo not drawn) [(4), 7β-[2-Methoxyimino-2-(5-amino-1,2,4-thiadiazol-3-yl)acetamido]-1-oxadethia-3-cephem-4-carboxylic acid (syn isomer)], the MIC in the assay on E. coli 31 came out at 0.025 µg/mL (≈ 0.0679 µM); in the assay with Pr. mirabilis 18, 0.1 µg/mL (≈ 0.271 µM); in the assay with Pr. vulgaris 2 it was 0.1 µg/mL (≈ 0.271 µM); against Kl. pneumoniae 20, 0.05 µg/mL (≈ 0.136 µM).

As to `CON=C(C(=O)NC1C(=O)N2C(C(=O)O)=CCOC12)c1nccc(N)n1` (stereo not drawn) [(5), 7β-[2-Methoxyimino-2-(4-aminopyrimidin-2-yl)acetamido]-1-oxadethia-3-cephem-4-carboxylic acid (syn isomer)], the MIC with E. coli 31 stood at 0.025 µg/mL (≈ 0.069 µM); with Pr. mirabilis 18, 0.05 µg/mL (≈ 0.138 µM); in the assay with Pr. vulgaris 2 it was 0.1 µg/mL (≈ 0.276 µM); with Kl. pneumoniae 20 it was 0.05 µg/mL (≈ 0.138 µM).
